Assay results from publication PMC12463120, “Phenylalanine‐Based DNA‐Encoded Chemical Libraries for the Discovery of Potent and Selective Small Organic Ligands Against Markers of Cancer and Immune Cells” (Advanced Science, 2025).

Key:
recombinant human ACP3 = molecular target: T1, recombinant human ACP3 (Homo sapiens, UniProt P15309); test: Fluorescence polarization (FP) affinity against human ACP3; assay type: binding; conditions: PSMA ligands as negative controls
T1 construct: made in house; host or cells: CHO cells
T1 sequence (P15309 33-386): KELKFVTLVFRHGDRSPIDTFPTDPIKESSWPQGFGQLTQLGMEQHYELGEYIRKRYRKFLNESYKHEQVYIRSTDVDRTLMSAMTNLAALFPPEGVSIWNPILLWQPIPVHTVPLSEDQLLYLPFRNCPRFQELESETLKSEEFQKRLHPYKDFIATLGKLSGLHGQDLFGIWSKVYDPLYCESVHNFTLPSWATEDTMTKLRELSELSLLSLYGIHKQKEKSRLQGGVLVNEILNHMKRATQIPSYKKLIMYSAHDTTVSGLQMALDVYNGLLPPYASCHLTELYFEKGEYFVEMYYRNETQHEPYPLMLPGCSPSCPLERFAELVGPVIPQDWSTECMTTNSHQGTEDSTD
Experimental: Selection results were decoded with C++^[ [61] ^] and visualized using MATLAB R2019b (MathWorks). EFs were calculated by dividing the DNA sequence counts for each hit compound by the average DNA sequence count from the corresponding DEL screening. Additionally, Z‐score values were calculated following methods previously published,^[ [60] ^] as present in Supporting Information. Hit compounds with high EFs in the target protein selections and low EFs in the negative controls (anti‐target and streptavidin selections) were selected for hit validation activities. All compounds were synthesized using either solid‐phase peptide synthesis or solution‐phase methodologies. Affinities of fluorescein‐bearing hits were determined by FP or ELISA measurements. […] ACP3 colorimetric inhibition assay was performed with serially diluted compounds at a fixed concentration (5 mM in PBS) of para‐nitrophenyl phosphate as substrate. Binding kinetics were assessed on a Biacore X100 instrument with the target protein immobilized on a CM5 chip at 4′000 RUs. Cell binding of fluorescent ligands was evaluated using flow cytometry against antigen‐positive and antigen‐negative (wild‐type) cancer cells. in vitro tissue uptake of ^177Lu‐labelled DOTAGA PSMA‐radioligands was measured via autoradiography. Prism 9 software (GraphPad Software) was used for data analysis of FP, ELISA, PD‐10, SPR, and enzymatic assay measurements. […]
(§1) The protein was then concentrated using Vivaspin® 20 centrifugal concentrators (30’000 Da molecular weight cutoff, Sartorius, #VS2012) and then purified by SEC or PD-10 column. The fractions were measured (absorption at 280 nm) on a Nanodrop 2000 Spectrophotometer to combine protein-containing fractions. […]
(§2) Protein dissolved in PBS or HEPES buffer was incubated for 30-60 min with 5 equiv. of EZ-LinkTM NHS-LC-Biotin (Thermo Fisher Scientific, #21336). […] The fractions were measured (absorption at 280 nm) on a Nanodrop 2000 Spectrophotometer to combine protein-containing fractions. […]
(§3) 2.11 Fluorescence polarization (FP) measurements with fluoresceine-labelled […]

PSMA [1] = molecular target: T2, PSMA (Homo sapiens, UniProt Q04609); test: Size-exclusion chromatography co-elution with PSMA; assay type: binding; conditions: recombinant PSMA vs GCP3
T2 construct: Avi-tag; made in house; host or cells: CHO cells
Experimental: (§4) Selection results were decoded with C++^[ [61] ^] and visualized using MATLAB R2019b (MathWorks). EFs were calculated by dividing the DNA sequence counts for each hit compound by the average DNA sequence count from the corresponding DEL screening. Additionally, Z‐score values were calculated following methods previously published,^[ [60] ^] as present in Supporting Information. Hit compounds with high EFs in the target protein selections and low EFs in the negative controls (anti‐target and streptavidin selections) were selected for hit validation activities. All compounds were synthesized using either solid‐phase peptide synthesis or solution‐phase methodologies. Affinities of fluorescein‐bearing hits were determined by FP or ELISA measurements. […] Binding kinetics were assessed on a Biacore X100 instrument with the target protein immobilized on a CM5 chip at 4′000 RUs. Cell binding of fluorescent ligands was evaluated using flow cytometry against antigen‐positive and antigen‐negative (wild‐type) cancer cells. in vitro tissue uptake of ^177Lu‐labelled DOTAGA PSMA‐radioligands was measured via autoradiography. […]
as §2

[2] = test system: HT-1080.hPSMA tumor cells; test: Flow cytometry on HT-1080.hPSMA cells; assay type: cell-based; conditions: 250 nM
Experimental: Selection results were decoded with C++^[ [61] ^] and visualized using MATLAB R2019b (MathWorks). EFs were calculated by dividing the DNA sequence counts for each hit compound by the average DNA sequence count from the corresponding DEL screening. Additionally, Z‐score values were calculated following methods previously published,^[ [60] ^] as present in Supporting Information. Hit compounds with high EFs in the target protein selections and low EFs in the negative controls (anti‐target and streptavidin selections) were selected for hit validation activities. All compounds were synthesized using either solid‐phase peptide synthesis or solution‐phase methodologies. Affinities of fluorescein‐bearing hits were determined by FP or ELISA measurements. […] ACP3 colorimetric inhibition assay was performed with serially diluted compounds at a fixed concentration (5 mM in PBS) of para‐nitrophenyl phosphate as substrate. Binding kinetics were assessed on a Biacore X100 instrument with the target protein immobilized on a CM5 chip at 4′000 RUs. Cell binding of fluorescent ligands was evaluated using flow cytometry against antigen‐positive and antigen‐negative (wild‐type) cancer cells. in vitro tissue uptake of ^177Lu‐labelled DOTAGA PSMA‐radioligands was measured via autoradiography. Prism 9 software (GraphPad Software) was used for data analysis of FP, ELISA, PD‐10, SPR, and enzymatic assay measurements. SPR sensograms were fitted with the Biacore X100 Evaluation Software. Flow cytometry data was processed with the FlowJo 10.4 software.
HT1080.hPSMA and PC3.hACP3 cell lines were generated by lentiviral transduction on wild type cells (HT1080.wt and PC3.wt), according to published procedures9. […]
Cancer cells were detached with an Accutase® cell detachment solution, resuspended in a standard culture medium, and transferred to falcon tubes. Cells were counted and centrifuged at 400 rcf for 3 min. […] Data were acquired halting the measurement at 10´ 000 events on a Cytoflex S flow cytometer (Beckman Coulter), and analyzed using the FlowJo software v10 (BD Biosciences). […]

PSMA [3] = molecular target: T2, PSMA; test: Fluorescence polarization (FP) affinity against PSMA; assay type: binding; conditions: fluoresceinated compounds
Experimental: Hits obtained from FM‐DEL1 (A1452 and A3113) and FM‐DEL2 (A3113/B423) were re‐synthesized as stereo‐chemically pure off‐DNA compounds derivatized with a C6 linker featuring a fluorescein moiety (coupled to fluorescein isothiocyanate‐FITC) (compounds 1–6) [Figure 2E]. The binding affinity against PSMA and GCP3 (KD) of fluoresceinated compounds 1–6 was measured by fluorescence polarization (FP). […] The superiority of compound 5 (S‐configuration) in binding PSMA over compound 6 (R‐configuration) was confirmed by molecular docking studies [Figure S48, Supporting Information]. […] The presence of the sole building block A3113 on the 3‐iodo‐phenylalanine scaffold in the S‐configuration gives adequate selectivity for PSMA over GCP3. The addition of the second building block (B423) enhances both affinity and selectivity for the target.
as §4, with “Hit compounds with high EFs in the target protein selections and low EFs in the negative controls (anti‐target and streptavidin selections) were selected for hit validation activities. All compounds were synthesized using either solid‐phase peptide synthesis or solution‐phase methodologies.” left out
as §1, §3

human CAIX (hCAIX) = molecular target: T3, human CAIX (hCAIX) (Homo sapiens, UniProt Q16790); test: Fluorescence polarization (FP) affinity against hCAIX; assay type: binding; conditions: fluorescein derivatives
T3 construct: made in house; host or cells: CHO cells
Experimental: A dilution series of target proteins (i.e., PSMA, GCP3, CAIX, CAII) in the respective formulation buffer were separately prepared in a black 384-well plate (non-binding Greiner small volume plate). Test compounds functionalized with fluorescein were diluted to a concentration between 5 and 10 nM (5 μL) and incubated for 15 min with the protein (final volume corresponding to 10 µL). The fluorophore was excited at 485 nm, and anisotropy was measured at 535 nm on a Spectra Max Paradigm multimode plate reader (Tecan). The experiments were performed in triplicate. KD values measured using this FP method can differ from dissociation constants obtained by other physical methods (e.g., surface plasmon resonance, see section below).

[4] = test system: SK-RC-52 renal cell carcinoma cells; test: Flow cytometry on SK-RC-52 cells; assay type: cell-based; conditions: 100 nM
murine CAIX (mCAIX) = murine CAIX (mCAIX) (Mus musculus, UniProt Q8VHB5); test: Fluorescence polarization (FP) affinity against mCAIX; assay type: binding
Experimental: as §4, §2

bovine CAII (bCAII) = bovine CAII (bCAII) (Bos taurus, UniProt P00921); test: Fluorescence polarization (FP) affinity against bCAII; assay type: binding
Experimental: as §4, §2

T2 sequence (Q04609 whole entry): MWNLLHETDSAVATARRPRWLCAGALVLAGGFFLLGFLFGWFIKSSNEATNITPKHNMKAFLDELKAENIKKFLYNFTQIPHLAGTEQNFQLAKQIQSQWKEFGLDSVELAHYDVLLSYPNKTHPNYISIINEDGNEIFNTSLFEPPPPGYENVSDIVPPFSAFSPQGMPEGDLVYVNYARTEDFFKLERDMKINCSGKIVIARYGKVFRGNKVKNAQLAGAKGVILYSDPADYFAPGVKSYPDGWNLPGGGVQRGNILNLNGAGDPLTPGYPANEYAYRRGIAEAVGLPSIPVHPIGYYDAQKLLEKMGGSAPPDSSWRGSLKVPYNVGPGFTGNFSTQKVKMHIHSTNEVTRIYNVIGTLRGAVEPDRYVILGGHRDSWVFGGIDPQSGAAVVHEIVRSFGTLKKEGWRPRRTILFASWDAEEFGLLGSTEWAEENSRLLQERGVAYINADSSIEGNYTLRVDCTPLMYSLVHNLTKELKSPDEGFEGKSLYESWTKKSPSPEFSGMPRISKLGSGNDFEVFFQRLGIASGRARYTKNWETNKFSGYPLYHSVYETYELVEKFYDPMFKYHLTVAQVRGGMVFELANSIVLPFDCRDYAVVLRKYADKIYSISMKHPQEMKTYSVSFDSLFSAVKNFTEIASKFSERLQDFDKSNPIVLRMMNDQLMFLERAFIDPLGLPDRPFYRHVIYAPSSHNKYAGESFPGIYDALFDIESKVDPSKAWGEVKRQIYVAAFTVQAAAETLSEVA
Chain of bovine CAII (bCAII) (P00921 whole entry): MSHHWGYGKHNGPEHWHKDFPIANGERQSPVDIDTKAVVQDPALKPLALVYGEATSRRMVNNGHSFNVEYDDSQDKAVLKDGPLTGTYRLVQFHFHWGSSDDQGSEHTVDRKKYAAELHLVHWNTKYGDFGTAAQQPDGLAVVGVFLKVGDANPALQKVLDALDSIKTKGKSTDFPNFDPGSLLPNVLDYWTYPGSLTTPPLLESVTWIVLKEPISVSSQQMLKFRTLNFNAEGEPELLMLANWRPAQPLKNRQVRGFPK
Chain of murine CAIX (mCAIX) (Q8VHB5 32-437): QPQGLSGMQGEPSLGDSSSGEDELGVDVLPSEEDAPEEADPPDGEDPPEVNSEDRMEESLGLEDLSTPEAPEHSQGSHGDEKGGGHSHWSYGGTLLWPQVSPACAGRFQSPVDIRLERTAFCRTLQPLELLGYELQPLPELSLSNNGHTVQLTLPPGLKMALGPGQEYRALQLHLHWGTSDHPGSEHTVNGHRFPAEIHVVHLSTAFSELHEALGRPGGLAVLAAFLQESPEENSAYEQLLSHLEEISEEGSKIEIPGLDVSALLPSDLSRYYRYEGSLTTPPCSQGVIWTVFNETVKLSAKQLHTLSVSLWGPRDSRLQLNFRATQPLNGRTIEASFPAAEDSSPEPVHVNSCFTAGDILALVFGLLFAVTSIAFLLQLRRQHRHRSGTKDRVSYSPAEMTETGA

binding to human ACP3 by FP (recombinant human ACP3) | Kd (PSMA [3]) [nM] | Kd (human CAIX (hCAIX)) [nM] | Kd (murine CAIX (mCAIX)) [nM] | Kd (bovine CAII (bCAII)) [nM] | SMILES | co-elution with PSMA in size-exclusion chromatography (PSMA [1]) | binding to PSMA on the cell surface by flow cytometry [2] | binding to CAIX on the cell surface by flow cytometry [4]
did not bind | 13 | – | – | – | CCOc1ccccc1-c1cccc(C[C@H](NC(=O)N[C@@H](CCC(=O)O)C(=O)O)C(=O)NCCCCCCNC(=S)Nc2ccc3c(c2)C(=O)OC32c3ccc(O)cc3Oc3cc(O)ccc32)c1 [compound 5] | selective and kinetically stable interaction with PSMA | able to bind to the antigen expressed on the tumor cell surface | –
– | – | 0.95 | 8.73 | 150 | NS(=O)(=O)c1ccc(-c2cccc(C[C@@H](NC(=O)CCC(=O)N[C@@H](CCCCNC(=S)Nc3ccc4c(c3)C(=O)OC43c4ccc(O)cc4Oc4cc(O)ccc43)C(=O)O)C(=O)NCC3(c4cccs4)CCOCC3)c2)cc1 [compound 21] | – | – | bound to the antigen expressed on the surface of cancer cells
